According to patent US20060223837A1 (priority 2005, published 2006):

Assays:
human VR1 [1] = biological target: T1, human VR1 (Homo sapiens, UniProt Q8NER1); assay: Human VR1 [3H]RTX binding assay; conditions: for Ki: [3H]RTX binding, HEK293 membranes; for inhibition at 1 µM / h Binding % I (1 μM): inhibition of [3H]RTX binding at 1 μM; for inhibition at 1 µM: read-out: h Binding % I (1 μM)
T1 construct: expressed in transfected cells; host or cells: HEK293
Experimental: Compounds of the present invention were tested for their ability to inhibit the binding of tritiated resiniferatoxin ([^3H] RTX) to human VR1 receptors in a [^3H] RTX binding assay, as previously described (Zhang, Sui-Po. Improved ligand binding assays for vanilloid receptors. PCT Int. Appl. (2002), WO 0233411 A1 20020425 AN 2002:315209; Grant, Elfrida R., Dubin, Adrienne E., Zhang, Sui-Po, Zivin, Robert A., Zhong, Zhong Simultaneous intracellular calcium and sodium flux imaging in human VR1-transfected human embryonic kidney cells: a method to resolve ionic dependence of VR1-mediated cell death. J. Pharmacol. Exp. ther., 2002, 300(1), 9-17.) HEK293 cells were transfected with human VR1 and washed with Hank's balanced Salt Solution, dissociated with cell dissociation buffer (Sigma), and then centrifuged at 1000× g for 5 min. Cell pellets were homogenized in cold 20 mM HEPES buffer (pH 7.4), containing 5.8 mM NaCl, 320 mM sucrose, 2 mM MgCl2, 0.75 CaCl2 and 5 mM KCl and centrifuged at 1000× g for 15 min. The resultant supernate was then centrifuged at 40000× g for 15 min. The pelleted membranes were stored in a freezer at −80 C.
Approximately 120 μg protein/ml from membranes were incubated with indicated concentrations of [^3H]RTX in 0.5 ml of the HEPES buffer (pH 7.4) containing 0.25 mg/mL fatty acid-free bovine serum albumin at 37 C for 60 min. After cooling the reaction mixture to 4 C, 0.1 mg (x-acid glycoprotein was added to each sample, which was incubated at 4 C for 15 min and then centrifuged at 18500× g for 15 min. The tip of the microcentrifuge tube containing the pellet was cut off. Bound radioactivity was quantified by scintillation counting. Non-specific binding was assessed in the presence of 200 nM unlabeled resiniferatoxin.
Data were calculated according to the equation: % inhibtion=(total binding−binding)*100/(total binding−non specific binding).
Ki values were calculated based on an average of duplicate measurements using a GraphPad Prism program.

human VR1 [2] = biological target: T1, human VR1; assay: Human VR1 functional assay (FLIPR intracellular Ca2+); format: cell-based; conditions: for Emax at 12 µM: read-out: % Response Relative to EC80 of Capsaicin (12 μM); for IC50: antagonism of capsaicin-induced Ca2+ increase, read-out: h IC50; for inhibition at 10 µM: read-out: h % I (10 μM); for EC50: agonist-induced Ca2+ increase, read-out: h EC50
Summary of the method: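 Read-out was Ca2+-dye fluorescence by FLIPR: compounds at varying concentrations were added to dye-loaded human VR1 HEK293 cells and monitored 5 min before capsaicin addition ([…], approx. EC80). Dose-response data, averaged over four wells, gave EC50 or IC50.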

[3] = inhibition of capsaicin response

T1 sequence (Q8NER1 whole entry): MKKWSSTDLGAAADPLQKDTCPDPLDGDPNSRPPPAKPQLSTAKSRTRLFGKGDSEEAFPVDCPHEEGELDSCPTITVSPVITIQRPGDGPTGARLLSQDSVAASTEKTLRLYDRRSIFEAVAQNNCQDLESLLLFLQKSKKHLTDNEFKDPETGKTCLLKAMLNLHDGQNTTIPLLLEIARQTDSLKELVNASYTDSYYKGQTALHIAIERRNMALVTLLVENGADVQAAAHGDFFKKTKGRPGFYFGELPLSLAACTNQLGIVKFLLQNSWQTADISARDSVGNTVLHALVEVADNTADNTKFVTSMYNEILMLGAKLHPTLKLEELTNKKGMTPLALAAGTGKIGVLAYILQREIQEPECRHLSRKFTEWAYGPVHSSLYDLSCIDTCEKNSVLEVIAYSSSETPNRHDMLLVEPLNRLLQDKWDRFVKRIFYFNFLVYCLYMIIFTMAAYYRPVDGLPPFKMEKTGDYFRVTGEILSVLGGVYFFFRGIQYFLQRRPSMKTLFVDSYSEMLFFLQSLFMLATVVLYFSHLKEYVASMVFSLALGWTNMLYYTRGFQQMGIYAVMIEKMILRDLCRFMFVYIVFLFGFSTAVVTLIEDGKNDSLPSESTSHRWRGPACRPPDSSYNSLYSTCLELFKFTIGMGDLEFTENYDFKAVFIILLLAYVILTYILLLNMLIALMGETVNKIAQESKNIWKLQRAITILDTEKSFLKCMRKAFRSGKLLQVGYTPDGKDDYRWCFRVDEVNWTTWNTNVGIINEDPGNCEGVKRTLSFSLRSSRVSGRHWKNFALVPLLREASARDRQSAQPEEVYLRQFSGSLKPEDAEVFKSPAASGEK

| SMILES | inhibition at 1 µM (human VR1 [1]) [%] | Emax at 12 µM (human VR1 [2]; agonist response) [%] | h Binding % I (1 μM) (human VR1 [1]) [%] | h % I (10 μM) (human VR1 [2]; [3]) [%] | also measured |
| --- | --- | --- | --- | --- | --- |
| CC(C)(C)c1ccc(CCC(=O)Nc2ccc(-c3cccc(Cl)c3)cc2)cc1 [Cpd 14] | 55 | 53 |  |  | Ki (human VR1 [1]): 4620 nM |
| CC(C)(C)c1ccc(CCC(=O)Nc2ccc(-c3cccc(F)c3)cc2)cc1 [Cpd 15] |  |  | 41 |  | % Response Relative to EC80 of Capsaicin (12 μM) (human VR1 [2]; agonist response): 80% |
| CC(=O)Nc1cccc(-c2ccc(NC(=O)CCc3ccc(C(C)(C)C)cc3)cc2)c1 [Cpd 16] | 68 | 101 |  |  | Ki (human VR1 [1]): 169 nM; Emax at 6 µM (human VR1 [2]; agonist response, 6 μM, read-out: % Response Relative to EC80 of Capsaicin (6 μM)): 63% |
| CC(C)(C)c1ccc(CCC(=O)Nc2ccc(-c3cccc(N)c3)cc2)cc1 [Cpd 17] | 90 | 67 |  |  | Ki (human VR1 [1]): 48 nM |
| CC(C)(C)c1ccc(CCC(=O)Nc2ccccc2-c2cccc(CO)c2)cc1 [Cpd 19] |  |  | 1 | 20 |  |
| CC(C)(C)c1ccc(CCC(=O)Nc2ccccc2-c2ccc(CO)cc2)cc1 [Cpd 20] | 1 |  |  |  | IC50 (human VR1 [2]): 2080 nM; inhibition at 10 µM (human VR1 [2]; [3]): 70% |
| CC(C)(C)c1ccc(CCC(=O)Nc2cccc(-c3cccc(CO)c3)c2)cc1 [Cpd 21] |  |  | 1 |  | % Response Relative to EC80 of Capsaicin (12 μM) (human VR1 [2]; agonist response): 45% |
| CC(C)(C)c1ccc(CCC(=O)Nc2cccc(-c3ccc(CO)cc3)c2)cc1 [Cpd 22] |  |  | 1 | 1 |  |
| CC(C)(C)c1ccc(CCC(=O)Nc2ccc(-c3ccc(CO)cc3)cc2)cc1 [Cpd 24] | 87 | 68 |  |  | Ki (human VR1 [1]): 84 nM; inhibition at 10 µM (human VR1 [2]; [3]): 32% |
| CC(C)(C)c1ccc(CCC(=O)Nc2ccc(-c3cccc(OC(F)(F)F)c3)cc2)cc1 [Cpd 26] |  |  | 10 |  | % Response Relative to EC80 of Capsaicin (12 μM) (human VR1 [2]; agonist response): 65% |
| Cc1cccc(-c2ccc(NC(=O)CCc3ccc(C(C)(C)C)cc3)cc2)c1 [Cpd 28] |  |  | 48 |  | % Response Relative to EC80 of Capsaicin (12 μM) (human VR1 [2]; agonist response): 81% |
| COC(=O)c1cccc(-c2ccc(NC(=O)CCc3ccc(C(C)(C)C)cc3)cc2)c1 [Cpd 29, 4′-[3-(4-tert-butyl-phenyl)-propionylamino]-biphenyl-3-carboxylic acid methyl ester] | 43 |  |  |  | inhibition at 10 µM (human VR1 [2]; [3]): 36% |
| CC(C)(C)c1ccc(CCC(=O)Nc2ccc(-c3cccc(C(=O)O)c3)cc2)cc1 [Cpd 30, 4′-[3-(4-tert-butyl-phenyl)-propionylamino]-biphenyl-3-carboxylic acid] | 2 | 94 |  |  | EC50 (human VR1 [2]): 1420 nM |
| CC(C)(C)c1ccc(CCC(=O)Nc2ccc(-c3cccc(C(N)=O)c3)cc2)cc1 [Cpd 31, 4′-[3-(4-tert-butyl-phenyl)-propionylamino]-biphenyl-3-carboxylic acid amide] | 4 |  |  |  | inhibition at 10 µM (human VR1 [2]; [3]): 28% |
| CN(C)C(=O)c1cccc(-c2cccc(NC(=O)CCc3ccc(C(C)(C)C)cc3)c2)c1 [Cpd 34] |  |  | 17 | 14 |  |
| CC(C)(C)c1ccc(/C=C/C(=O)Nc2ccc(-c3cccc(C(N)=O)c3)cc2)cc1 [Cpd 35, 4′-[3-(4-tert-butyl-phenyl)-acryloylamino]-biphenyl-3-carboxylic acid amide] | 30 | 53 |  |  |  |
| CN(C)C(=O)c1cccc(-c2ccc(NC(=O)/C=C/c3ccc(C(C)(C)C)cc3)cc2)c1 [Cpd 36] |  |  | 16 |  | % Response Relative to EC80 of Capsaicin (12 μM) (human VR1 [2]; agonist response): 55% |
| CC(C)(C)c1ccc(CCC(=O)Nc2cccc(-c3cccc(C(N)=O)c3)c2)cc1 [Cpd 37] |  |  | 21 | 16 |  |
| CN(C)C(=O)c1cccc(-c2cccc(NC(=O)CCc3ccc(C(C)(C)C)cc3)c2)c1 [Cpd 38] |  |  | 1 | 17 |  |
| CN(C)C(=O)c1cccc(-c2ccc(NC(=O)CCc3ccc(C(C)(C)C)cc3)cc2)c1 [Cpd 39] |  |  | 5 | 24 |  |
| CC(C)(C)c1ccc(CCC(=O)Nc2ccc(-c3cccc(NS(C)(=O)=O)c3)cc2)cc1 [Cpd 40] |  |  | 41 |  | % Response Relative to EC80 of Capsaicin (12 μM) (human VR1 [2]; agonist response): 74% |
| CC(C)(C)OC(=O)Nc1cccc(-c2ccc(NC(=O)CCc3ccc(C(C)(C)C)cc3)cc2)c1 [Cpd 41] | 78.8 | 43 |  |  | Ki (human VR1 [1]): 109 nM; inhibition at 10 µM (human VR1 [2]; [3]): 30% |
| CC(C)(C)OC(=O)NCc1cccc(-c2ccc(NC(=O)CCc3ccc(C(C)(C)C)cc3)cc2)c1 [Cpd 42] |  |  | 1.1 | 9 |  |
| CC(C)(C)c1ccc(CCC(=O)Nc2ccc(-c3cccc(CN)c3)cc2)cc1 [Cpd 43] | 23 | 104 |  |  | EC50 (human VR1 [2]): 1660 nM |
| CC(C)(C)c1ccc(CCC(=O)Nc2ccc(-c3cccc(NC(N)=O)c3)cc2)cc1 [Cpd 44] | 97 | 102 |  |  | Ki (human VR1 [1]): 52 nM; EC50 (human VR1 [2]): 289 nM |
| CC(C)(C)c1ccc(CCC(=O)Nc2ccc(-c3cccc(OCCN)c3)cc2)cc1 [Cpd 45] | 16 | 84 |  |  | EC50 (human VR1 [2]): 2400 nM |
| CC(C)(C)c1ccc(CCC(=O)Nc2ccc(-c3cccc(NCCO)c3)cc2)cc1 [Cpd 46] | 34 |  |  |  | IC50 (human VR1 [2]): 4770 nM; inhibition at 10 µM (human VR1 [2]; [3]): 53% |
| NC(=O)c1cccc(-c2ccc(NC(=O)CCc3ccc(C(F)(F)F)cc3)cc2)c1 [Cpd 48] |  |  | 2.1 |  | % Response Relative to EC80 of Capsaicin (12 μM) (human VR1 [2]; agonist response): 57% |
| CC(=O)Nc1cccc(-c2ccc(NC(=O)CCc3ccc(C(C)(C)C)cc3)cc2C)c1 [Cpd 55] | 66 | 69 |  |  | Ki (human VR1 [1]): 184 nM |

Now from value to compound, other results behind:

| inhibition at 1 µM (human VR1 [1]) [%] | Emax at 12 µM (human VR1 [2]; agonist response) [%] | h Binding % I (1 μM) (human VR1 [1]) [%] | h % I (10 μM) (human VR1 [2]; [3]) [%] | SMILES | also measured |
| --- | --- | --- | --- | --- | --- |
| 66 | 84 |  |  | CC(=O)Nc1cccc(-c2ccc(NC(=O)CCc3ccc(C(C)(C)C)cc3)cc2F)c1 [Cpd 57] | Ki (human VR1 [1]): 266 nM |
|  |  | 43 |  | Cc1cc(-c2cccc(O)c2)ccc1NC(=O)CCc1ccc(C(C)(C)C)cc1 [Cpd 58] | % Response Relative to EC80 of Capsaicin (6 μM) (human VR1 [2]; agonist response, 6 μM): 19% |
| 103 |  |  |  | Cc1cc(NC(=O)CCc2ccc(C(C)(C)C)cc2)ccc1-c1cccc(O)c1 [Cpd 59, 3-(4-tert-butyl-phenyl)-N-(3′-hydroxy-2-methyl-biphenyl-4-yl)-propionamide] | Ki (human VR1 [1]): 10.7 nM; IC50 (human VR1 [2]): 490 nM; inhibition at 10 µM (human VR1 [2]; [3]): 101% |
| 52 | 84 |  |  | CC(C)(C)c1ccc(CCC(=O)Nc2ccc(-c3cccc(O)c3)cc2F)cc1 [Cpd 60] | Ki (human VR1 [1]): 541 nM |
| 96 | 68 |  |  | CC(C)(C)c1ccc(CCC(=O)Nc2ccc(-c3cccc(O)c3)c(F)c2)cc1 [Cpd 61] | Ki (human VR1 [1]): 53.3 nM |
|  |  | 23 |  | CC(C)(C)c1ccc(CCC(=O)Nc2ccc(-c3cccc(O)c3)cc2)cc1 [Cpd 62] | h % I (5 μM) (human VR1 [2]; inhibition of capsaicin response, 5 μM): 16% |
| 77 | 87 |  |  | CC(C)(C)c1ccc(CCC(=O)Nc2ccc(-c3cccc(O)c3)cc2)s1 [Cpd 65, 3-(5-tert-butyl-thiophen-2-yl)-N-(3′-hydroxy-biphenyl-4-yl)-propionamide] | Ki (human VR1 [1]): 168 nM |
|  |  | 1 | 6 | CC(C)(C)c1ccc(CCC(=O)Nc2ccc(-c3cccc(C(N)=O)c3)cc2CO)cc1 [Cpd 69] |  |
|  |  | 1 | 7 | CC(=O)Nc1cccc(-c2ccc(NC(=O)CCc3ccc(C(C)(C)C)cc3)c(CO)c2)c1 [Cpd 70] |  |
|  |  | 1 | 5 | CC(C)(C)c1ccc(CCC(=O)Nc2ccc(-c3cccc(O)c3)cc2CO)cc1 [Cpd 71] |  |
|  |  | 1 | 11 | CC(C)(C)c1ccc(CCC(=O)Nc2ccc(-c3cccc(C(N)=O)c3)c(C(=O)O)c2)cc1 [Cpd 72] |  |
|  |  | 1 | 20 | CC(=O)Nc1cccc(-c2ccc(NC(=O)CCc3ccc(C(C)(C)C)cc3)cc2C(=O)O)c1 [Cpd 73] |  |
|  |  | 1 | 8 | CC(C)(C)c1ccc(CCC(=O)Nc2ccc(-c3cccc(O)c3)c(C(=O)O)c2)cc1 [Cpd 74] |  |
|  |  | 6 |  | CC(=O)Nc1cccc(-c2ccc(NC(=O)CCc3ccc(C(F)(F)F)cc3)cc2)c1 [Cpd 75] | % Response Relative to EC80 of Capsaicin (12 μM) (human VR1 [2]; agonist response): 82% |
